From patent US5672715A, “Herbicidal substituted 3-aryl-pyrazoles” (Monsanto Company, priority 1995, dated 1997)

Columns and labels:
Format in all cases: in vivo
[1] = system: Yellow Foxtail; assay: post-emergence herbicide test; details: Setaria, read-out: % plant inhibition; for inhibition at 7.95803 g/ha: 0.0071 lb/A; for inhibition at 40.0143 g/ha: 0.0357 lb/A; for inhibition at 200.072 g/ha: 0.1785 lb/A; for inhibition at 1000.92 g/ha: 0.893 lb/A
Summary of the method: (§1)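 Each pan is moved to a spraying chamber when plants are two to three weeks old and sprayed by atomizer at 10 psig, delivering 1870 L/Ha containing about 0.4% by volume emulsifier. Greenhouse-grown from seed; percent inhibition scored.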

[2] = system: Morning Glory; assay: post-emergence herbicide test; details: Ipomoea, post-emergence, read-out: % plant inhibition; for inhibition at 7.95803 g/ha: 0.0071 lb/A; for inhibition at 40.0143 g/ha: 0.0357 lb/A; for inhibition at 200.072 g/ha: 0.1785 lb/A; for inhibition at 1000.92 g/ha: 0.893 lb/A
Summary of the method: as §1

[3] = system: Wheat; assay: post-emergence herbicide test; details: Triticum aestivum, post-emergence, read-out: % plant inhibition; for inhibition at 7.95803 g/ha: 0.0071 lb/A; for inhibition at 40.0143 g/ha: 0.0357 lb/A; for inhibition at 200.072 g/ha: 0.1785 lb/A; for inhibition at 1000.92 g/ha: 0.893 lb/A
Summary of the method: as §1

[4] = system: Velvetleaf; assay: post-emergence herbicide test; details: Abutilon theophrasti, post-emergence, read-out: % plant inhibition; for inhibition at 7.95803 g/ha: 0.0071 lb/A; for inhibition at 40.0143 g/ha: 0.0357 lb/A; for inhibition at 200.072 g/ha: 0.1785 lb/A; for inhibition at 1000.92 g/ha: 0.893 lb/A
Summary of the method: as §1

[5] = system: Yellow Nutsedge; assay: post-emergence herbicide test; details: Cyperus, read-out: % plant inhibition; for inhibition at 7.95803 g/ha: 0.0071 lb/A; for inhibition at 40.0143 g/ha: 0.0357 lb/A; for inhibition at 200.072 g/ha: 0.1785 lb/A; for inhibition at 1000.92 g/ha: 0.893 lb/A
Summary of the method: as §1

[6] = system: Common Chickweed; assay: post-emergence herbicide test; details: post-emergence, read-out: % plant inhibition; for inhibition at 7.95803 g/ha: 0.0071 lb/A; for inhibition at 40.0143 g/ha: 0.0357 lb/A; for inhibition at 200.072 g/ha: 0.1785 lb/A; for inhibition at 1000.92 g/ha: 0.893 lb/A
Summary of the method: as §1

[7] = system: Broadleaf Signalgrass; assay: pre-emergence herbicide test; details: Urochloa platyphylla, 0.25 lb/A, read-out: % plant inhibition
Summary of the method: (§2)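 Known amounts of active ingredient went into the cover soil over seeds sown in pans, either before or after the layer was spread. An initial 1/4 inch overhead irrigation was given in some cases; otherwise pans were subirrigated. Rating was % inhibition at ~14 days.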

[8] = system: Wild Proso Millet; assay: pre-emergence herbicide test; details: 0.25 lb/A, read-out: % plant inhibition
Summary of the method: as §2

[9] = system: Seedling Johnsongrass; assay: pre-emergence herbicide test; details: 0.25 lb/A; for inhibition at 280.212 g/ha: Sorghum halepense, pre-emergence, read-out: % plant inhibition
Summary of the method: as §2

[10] = system: Shattercane; assay: pre-emergence herbicide test; details: 0.25 lb/A, read-out: % plant inhibition
Summary of the method: as §2

[11] = system: Prickly Sida; assay: post-emergence herbicide test; details: 0.25 lb/A, read-out: % plant inhibition
Summary of the method: as §1

[12] = system: Black Nightshade; assay: post-emergence herbicide test; details: Solanum nigrum, 0.25 lb/A, read-out: % plant inhibition
Summary of the method: as §1

[13] = system: Sicklepod; assay: post-emergence herbicide test; details: Senna obtusifolia, 0.25 lb/A, read-out: % plant inhibition
Summary of the method: as §1

[14] = system: Hemp Sesbania; assay: post-emergence herbicide test; details: 0.25 lb/A, read-out: % plant inhibition
Summary of the method: as §1

[15] = system: Giant Foxtail; assay: pre-emergence herbicide test; details: Setaria faberi, pre-emergence, 0.25 lb/A; read-out: % plant inhibition
Summary of the method: as §2

[16] = system: Prickly Sida; assay: pre-emergence herbicide test; details: 0.25 lb/A, read-out: % plant inhibition
Summary of the method: as §2

SMILES: C#CCOc1cc(-c2nn(C)c(C(F)(F)F)c2C)c(F)cc1Cl [Compound 39]
- inhibition at 7.95803 g/ha [1]: 65%
- inhibition at 40.0143 g/ha [1]: 100%
- inhibition at 200.072 g/ha [1]: 100%
- inhibition at 1000.92 g/ha [1]: 100%
- inhibition at 7.95803 g/ha [2]: 95%
- inhibition at 40.0143 g/ha [2]: 80%
- inhibition at 200.072 g/ha [2]: 100%
- inhibition at 1000.92 g/ha [2]: 95%
- inhibition at 7.95803 g/ha [3]: 0%
- inhibition at 40.0143 g/ha [3]: 0%
- inhibition at 200.072 g/ha [3]: 15%
- inhibition at 1000.92 g/ha [3]: 75%
- inhibition at 7.95803 g/ha [4]: 75%
- inhibition at 40.0143 g/ha [4]: 100%
- inhibition at 200.072 g/ha [4]: 100%
- inhibition at 1000.92 g/ha [4]: 100%
- inhibition at 7.95803 g/ha [5]: 0%
- inhibition at 40.0143 g/ha [5]: 40%
- inhibition at 200.072 g/ha [5]: 10%
- inhibition at 1000.92 g/ha [5]: 30%
- inhibition at 7.95803 g/ha [6]: 0%
- inhibition at 40.0143 g/ha [6]: 100%
- inhibition at 200.072 g/ha [6]: 100%
- inhibition at 1000.92 g/ha [6]: 100%
- inhibition at 280.212 g/ha [7]: 100%
- inhibition at 280.212 g/ha [8]: 100%
- inhibition at 280.212 g/ha [9]: 100%
- inhibition at 280.212 g/ha [10]: 100%

SMILES: Cc1c(-c2cc(OCC(=O)OC(C)C)c(Cl)cc2F)nn(C)c1C(F)(F)F [Compound 38]
- inhibition at 280.212 g/ha [11]: 50%
- inhibition at 7.95803 g/ha [1]: 0%
- inhibition at 40.0143 g/ha [1]: 35%
- inhibition at 200.072 g/ha [1]: 10%
- inhibition at 1000.92 g/ha [1]: 15%
- inhibition at 7.95803 g/ha [2]: 80%
- inhibition at 40.0143 g/ha [2]: 100%
- inhibition at 200.072 g/ha [2]: 100%
- inhibition at 280.212 g/ha ([2]; 0.25 lb/A): 95%
- inhibition at 1000.92 g/ha [2]: 100%
- inhibition at 7.95803 g/ha [3]: 10%
- inhibition at 40.0143 g/ha [3]: 10%
- inhibition at 200.072 g/ha [3]: 10%
- inhibition at 1000.92 g/ha [3]: 10%
- inhibition at 280.212 g/ha [12]: 100%
- inhibition at 7.95803 g/ha [4]: 65%
- inhibition at 40.0143 g/ha [4]: 100%
- inhibition at 200.072 g/ha [4]: 100%
- inhibition at 280.212 g/ha ([4]; 0.25 lb/A): 100%
- inhibition at 1000.92 g/ha [4]: 100%
- inhibition at 7.95803 g/ha [5]: 35%
- inhibition at 40.0143 g/ha [5]: 25%
- inhibition at 200.072 g/ha [5]: 25%
- inhibition at 1000.92 g/ha [5]: 25%
- inhibition at 280.212 g/ha [13]: 20%
- inhibition at 7.95803 g/ha [6]: 65%
- inhibition at 40.0143 g/ha [6]: 75%
- inhibition at 200.072 g/ha [6]: 95%
- inhibition at 1000.92 g/ha [6]: 98%
- inhibition at 280.212 g/ha [14]: 100%
- inhibition at 280.212 g/ha [15]: 20%
- inhibition at 280.212 g/ha [16]: 95%
- % plant inhibition [9]: 25%
- inhibition at 280.212 g/ha [9]: 30%

SMILES: COc1cc(-c2nn(C)c(C(F)(F)F)c2C)c(F)cc1Cl [Compound 37]
- inhibition at 7.95803 g/ha [1]: 0%
- inhibition at 40.0143 g/ha [1]: 20%
- inhibition at 200.072 g/ha [1]: 65%
- inhibition at 1000.92 g/ha [1]: 65%
- inhibition at 7.95803 g/ha [2]: 0%
- inhibition at 40.0143 g/ha [2]: 45%
- inhibition at 200.072 g/ha [2]: 95%
- inhibition at 1000.92 g/ha [2]: 100%
- inhibition at 7.95803 g/ha [3]: 5%
- inhibition at 40.0143 g/ha [3]: 0%
- inhibition at 200.072 g/ha [3]: 10%
- inhibition at 1000.92 g/ha [3]: 30%
- inhibition at 7.95803 g/ha [4]: 25%
- inhibition at 40.0143 g/ha [4]: 35%
- inhibition at 200.072 g/ha [4]: 50%
- inhibition at 1000.92 g/ha [4]: 100%
- inhibition at 7.95803 g/ha [5]: 0%
- inhibition at 40.0143 g/ha [5]: 10%
- inhibition at 200.072 g/ha [5]: 15%
- inhibition at 1000.92 g/ha [5]: 40%
- inhibition at 7.95803 g/ha [6]: 0%
- inhibition at 40.0143 g/ha [6]: 40%
- inhibition at 200.072 g/ha [6]: 70%
- inhibition at 1000.92 g/ha [6]: 80%
- inhibition at 280.212 g/ha [15]: 100%
- inhibition at 280.212 g/ha [7]: 100%
- inhibition at 280.212 g/ha [8]: 100%
- inhibition at 280.212 g/ha [9]: 100%
- inhibition at 280.212 g/ha [10]: 100%
